The record followed here is patent publication US11331369B2, “Endoparasitic depsipeptides” (Zoetis Services LLC, priority 2017, dated 2022).

This experiment has as its system microfilariae of Dirofilaria immitis. Put plainly: Dirofilaria immitis, Microfilaria (DiMF) In vitro Assay. The format is cell-based. Conditions: 72 h, read-out: DiMF Minimum Effective Dose (MED), approximately 72 hours incubation, microfilariae assessed for survival or paralysis.

As to `CCOc1cn(Cc2ccc(C[C@H]3OC(=O)[C@H](CC(C)C)N(C)C(=O)[C@@H](C)OC(=O)[C@H](CC(C)C)N(C)C(=O)[C@@H](Cc4ccc(Cn5cc(OCC)c(C)n5)cc4)OC(=O)[C@H](CC(C)C)N(C)C(=O)[C@@H](C)OC(=O)[C@H](CC(C)C)N(C)C3=O)cc2)nc1C` [Example 1b-198, (3S,6R,9S,12R,15S,18R,21S,24R)-6,18-bis[[4-[(4-ethoxy-3-methyl-pyrazol-1-yl)methyl]phenyl]methyl]-3,9,15,21-tetraisobutyl-4,10,12,16,22,24-hexamethyl-1,7,13,19-tetraoxa-4,10,16,22-tetrazacyclotetracosane-2,5,8,11,14,17,20,23-octaone], the minimal effective concentration lay in the range of 0.01 to 0.1 µM. `Cc1nn(Cc2ccc(C[C@H]3OC(=O)[C@H](CC(C)C)N(C)C(=O)[C@@H](C)OC(=O)[C@H](CC(C)C)N(C)C(=O)[C@@H](Cc4ccc(Cn5cc(OC(C)C)c(C)n5)cc4)OC(=O)[C@H](CC(C)C)N(C)C(=O)[C@@H](C)OC(=O)[C@H](CC(C)C)N(C)C3=O)cc2)cc1OC(C)C` [Example 1b-199, (3S,6R,9S,12R,15S,18R,21S,24R)-3,9,15,21-tetraisobutyl-6,18-bis[[4-[(4-isopropoxy-3-methyl-pyrazol-1-yl)methyl]phenyl]methyl]-4,10,12,16,22,24-hexamethyl-1,7,13,19-tetraoxa-4,10,16,22-tetrazacyclotetracosane-2,5,8,11,14,17,20,23-octaone]: the minimal effective concentration lay in the range of 0.01 to 0.1 µM. With `CC(C)C[C@H]1C(=O)O[C@H](Cc2ccc(Cn3nccc3C3(N)CC3)cc2)C(=O)N(C)[C@@H](CC(C)C)C(=O)O[C@H](C)C(=O)N(C)[C@@H](CC(C)C)C(=O)O[C@H](Cc2ccc(Cn3nccc3C3(N)CC3)cc2)C(=O)N(C)[C@@H](CC(C)C)C(=O)O[C@H](C)C(=O)N1C` [Example 1b-218, (3S,6R,9S,12R,15S,18R,21S,24R)-6,18-bis(4-((5-(1-aminocyclopropyl)-1H-pyrazol-1-yl)methyl)benzyl)-3,9,15,21-tetraisobutyl-4,10,12,16,22,24-hexamethyl-1,7,13,19-tetraoxa-4,10,16,22-tetraazacyclotetracosan-2,5,8,11,14,17,20,23-octaone], the minimal effective concentration fell in the range of 0.01 to 0.1 µM. In the case of `CC(C)C[C@H]1C(=O)O[C@H](Cc2ccc(Cn3cc(-c4ccccc4)cn3)cc2)C(=O)N(C)[C@@H](CC(C)C)C(=O)O[C@H](C)C(=O)N(C)[C@@H](CC(C)C)C(=O)O[C@H](Cc2ccccc2)C(=O)N(C)[C@@H](CC(C)C)C(=O)O[C@H](C)C(=O)N1C` [Example 2-3, (3S,6R,9S,12R,15S,18R,21S,24R)-6-benzyl-3,9,15,21-tetraisobutyl-4,10,12,16,22,24-hexamethyl-18-[[4-[(4-phenylpyrazol-1-yl)methyl]phenyl]methyl]-1,7,13,19-tetraoxa-4,10,16,22-tetrazacyclotetracosane-2,5,8,11,14,17,20,23-octaone], the minimal effective concentration fell in the range of 0.01 to 0.1 µM. Consider `CC(C)C[C@H]1C(=O)O[C@H](Cc2ccc(Cn3cc(-c4ccc(F)cc4)cn3)cc2)C(=O)N(C)[C@@H](CC(C)C)C(=O)O[C@H](C)C(=O)N(C)[C@@H](CC(C)C)C(=O)O[C@H](Cc2ccccc2)C(=O)N(C)[C@@H](CC(C)C)C(=O)O[C@H](C)C(=O)N1C` [Example 2-5, (3S,6R,9S,12R,15S,18R,21S,24R)-6-benzyl-18-[[4-[[4-(4-fluorophenyl)pyrazol-1-yl]methyl]phenyl]methyl]-3,9,15,21-tetraisobutyl-4,10,12,16,22,24-hexamethyl-1,7,13,19-tetraoxa-4,10,16,22-tetrazacyclotetracosane-2,5,8,11,14,17,20,23-octaone], for which the minimal effective concentration is 0.01 to 0.1 µM.
